Experimental data reported in patent US7211577B2, “Water-soluble phenylpyridazine derivative and medicine containing the same” (Kowa Co., Ltd., priority 2003, dated 2007).

| Compound | melting point |
| --- | --- |
| COc1ccc(-c2cc(CN3CCN(C)CC3)c(=O)n(Cc3ccc(F)cc3)n2)cc1F [Example 189, 2-(4-fluorobenzyl)-6-(3-fluoro-4-methoxyphenyl)-4-(4-methyl-1-piperazinyl)methyl-2H-pyridazin-3-one] | 112 to 113 °C |
| COc1ccc(-c2cc(CN(C)C)c(=O)n(Cc3ccc(F)cc3)n2)cc1F [Example 190, 4-dimethylaminomethyl-2-(4-fluorobenzyl)-6-(3-fluoro-4-methoxyphenyl)-2H-pyridazin-3-one] | 127 to 129 °C |
| CC(C)Cn1nc(-c2ccc([S+](C)[O-])cc2)cc(CN2CCN(C)CC2)c1=O.Cl.Cl (centres unmarked) | 224.5 to 229.1 °C (dec.) |
| Cc1ccc(-c2cc(CN)c(=O)n(CC(C)C)n2)cc1 [Example 50, 4-aminomethyl-2-isobutyl-6-(4-methylphenyl)-2H-pyridazin-3-one] | 74.9 to 77.9 °C |
| Cc1cc(-c2cc(CN3CCN(C)CC3)c(=O)n(Cc3ccc(Cl)cc3)n2)ccc1F.Cl.Cl | 246.4 to 249.7 °C (dec.) |
| CC(C)Cn1nc(-c2ccc([S+](C)[O-])cc2)cc(CN(C)C)c1=O.Cl (centres unmarked) | 204.2 to 206 °C |
| Cc1cc(-c2cc(CN(C)C)c(=O)n(Cc3ccccc3)n2)ccc1F.Cl | 225.3 to 226 °C |
| COc1ccc(-c2cc(CN)c(=O)n(Cc3ccc(Cl)cc3)n2)cc1F [Example 205, 4-aminomethyl-2-(4-chlorobenzyl)-6-(3-fluoro-4-methoxyphenyl)-2H-pyridazin-3-one] | 128.5 to 131.4 °C |
| CSc1ccc(-c2cc(CN3CCN(C)CC3)c(=O)n(CC(C)C)n2)cc1.Cl.Cl | 242.6 to 243.7 °C |
| Cc1c(-c2ccc(C(F)(F)F)cc2)nn(CC(C)C)c(=O)c1N1CCN(C)CC1.Cl.Cl | 249.9 to 252.8 °C |
| CC(C)Cn1nc(-c2ccc(F)c(F)c2)cc(CN2CCNCC2)c1=O.Cl.Cl | 182.5 to 186 °C |
| Cc1cc(-c2cc(CN3CCN(C)CC3)c(=O)n(CC=Cc3ccccc3)n2)ccc1F.Cl.Cl | 236.1 to 237.1 °C |
| COc1ccc(-c2cc(CN(C)C)c(=O)n(CCCc3ccc(F)cc3)n2)cc1F [Example 197, 4-dimethylaminomethyl-6-(3-fluoro-4-methoxyphenyl)-2-[3-(4-fluorophenyl)propyl]-2H-pyridazin-3-one] | 97 to 100 °C |
| Cc1ccc(-c2cc(CN3CCNCC3)c(=O)n(CC(C)C)n2)cc1F.Cl.Cl | 186.2 to 195 °C (dec.) |
| Cc1ccc(-c2cc(CNC(CO)CO)c(=O)n(CC(C)C)n2)cc1 [Example 52, 4-(1,3-dihydroxypropan-2-yl)aminomethyl-2-isobutyl-6-(4-methylphenyl)-2H-pyridazin-3-one] | 134.1 to 135.2 °C |
| Cc1c(-c2ccccc2)nn(CC(C)C)c(=O)c1N1CCNCC1.Cl.Cl | 154.3 to 159.5 °C |
| CSc1ccc(-c2cc(CN3CCNCC3)c(=O)n(CC(C)C)n2)cc1.Cl.Cl | 248.5 to 253.7 °C (dec.) |
| Cc1cc(-c2cc(CN3CCNCC3)c(=O)n(Cc3ccccc3)n2)ccc1F.Cl.Cl | 162.7 to 180.7 °C (dec.) |
| CC(C)Cn1nc(-c2ccc(S(C)(=O)=O)cc2)cc(CN2CCN(C)CC2)c1=O.Cl.Cl | 224.5 to 228 °C |

| Compound | melting point |
| --- | --- |
| CN1CCN(Cc2cc(-c3ccc(S(C)(=O)=O)cc3)nn(CC3CC3)c2=O)CC1.Cl.Cl | 209 to 211.4 °C |
| CC(C)Cn1nc(-c2ccc(C(F)(F)F)cc2)cc(CN2CCNCC2)c1=O.Cl.Cl | 210.8 to 212.5 °C |
| COc1ccc(-c2cc(CN(C)C)c(=O)n(Cc3ccc(Cl)cc3)n2)cc1F [Example 203, 2-(4-chlorobenzyl)-4-dimethylaminomethyl-6-(3-fluoro-4-methoxyphenyl)-2H-pyridazin-3-one] | 95.3 to 96.7 °C |
| Cc1ccc(-c2cc(CN(C)C)c(=O)n(CC(C)C)n2)cc1F.Cl [Example 8, 4-dimethylaminomethyl-6-(3-fluoro-4-methylphenyl)-2-isobutyl-2H-pyridazin-3-one hydrochloride] | 246.5 to 248.5 °C |
| COc1ccc(-c2cc(CN3CCN(C)CC3)c(=O)n(CC(C)C)n2)cc1F.Cl.Cl | 236.9 to 237 °C |
| COc1ccc(-c2cc(CN)c(=O)n(CCCc3ccc(F)cc3)n2)cc1F [Example 200, 4-aminomethyl-6-(3-fluoro-4-methoxyphenyl)-2-[3-(4-fluorophenyl)propyl]-2H-pyridazin-3-one] | 82 to 84 °C |
| COc1ccc(-c2cc(CN3CCNCC3)c(=O)n(CC3CC3)n2)cc1F [Example 20, 2-cyclopropylmethyl-6-(3-fluoro-4-methoxyphenyl)-4-(1-piperazinyl)methyl-2H-pyridazin-3-one] | 111.5 to 118 °C |
| CC(C)Cn1nc(-c2ccc(S(C)(=O)=O)cc2)cc(CN2CCNCC2)c1=O.Cl.Cl | 222.4 to 224.2 °C |
| CC(C)Cn1nc(-c2ccc(-c3ccccc3)cc2)cc(CN2CCNCC2)c1=O.Cl.Cl | 226.8 to 228 °C |
| CC(C)Cn1nc(-c2ccc(F)c(F)c2)cc(CN(C)C)c1=O.Cl | 226.5 to 227.7 °C |
| COc1ccc(-c2cc(CN3CCNCC3)c(=O)n(Cc3ccc(F)cc3)n2)cc1F [Example 192, 2-(4-fluorobenzyl)-6-(3-fluoro-4-methoxyphenyl)-4-(1-piperazinyl)methyl-2H-pyridazin-3-one] | 142 to 143 °C |
| Cc1cc(-c2cc(CN3CCN(C)CC3)c(=O)n(Cc3ccccc3Cl)n2)ccc1F.Cl.Cl | 191 to 202 °C (dec.) |
| Cc1cc(-c2cc(CN(C)C)c(=O)n(CC=Cc3ccc(Cl)cc3)n2)ccc1F.Cl | 201.3 to 201.9 °C |
| Cc1cc(-c2cc(CN3CCN(C)CC3)c(=O)n(Cc3ccccc3Cl)n2)ccc1F [Example 224, 2-(2-chlorobenzyl)-6-(4-fluoro-3-methylphenyl)-4-(4-methyl-1-piperazinyl)methyl-2H-pyridazin-3-one] | 149.7 to 150.9 °C |
| COc1ccc(-c2cc(CN3CCNCC3)c(=O)n(CC(C)C)n2)cc1Cl.Cl.Cl | 203.6 to 204.5 °C |
| COc1ccc(-c2cc(CN3CCN(C)CC3)c(=O)n(CC(C)C)n2)cc1Cl.Cl.Cl | 235.8 to 236.7 °C |
| COc1ccc(-c2cc(CN(C)C)c(=O)n(CC(C)C)n2)cc1F.Cl | 212.4 to 212.8 °C |
| Cc1cc(-c2cc(CN3CCN(C)CC3)c(=O)n(Cc3ccccc3)n2)ccc1F.Cl.Cl | 240 to 242.5 °C (dec.) |
| CNCc1cc(-c2ccc(OC)c(F)c2)nn(CC2CC2)c1=O [Example 9, 2-cyclopropylmethyl-6-(3-fluoro-4-methoxyphenyl)-4-methylaminomethyl-2H-pyridazin-3-one] | 169.1 to 170.7 °C |

| Compound | melting point |
| --- | --- |
| CN(C)Cc1cc(-c2ccc(S(C)(=O)=O)cc2)nn(CC2CC2)c1=O.Cl | 239.5 to 240.7 °C |
| COc1ccc(-c2cc(CN(C)C)c(=O)n(Cc3ccc(F)c(F)c3)n2)cc1F [Example 208, 2-(3,4-difluorobenzyl)-4-dimethylaminomethyl-6-(3-fluoro-4-methoxyphenyl)-2H-pyridazin-3-one] | 129.9 to 130.4 °C |
| Cc1cc(-c2cc(CN3CCNCC3)c(=O)n(CC=Cc3ccccc3)n2)ccc1F.Cl.Cl | 171.1 to 187.1 °C (dec.) |
| COc1ccc(-c2cc(CN3CCNCC3)c(=O)n(CC(C)C)n2)cc1F.Cl.Cl | 163 to 177 °C (dec.) |
| Cc1cc(-c2cc(CN(C)C)c(=O)n(CC=Cc3ccccc3)n2)ccc1F.Cl | 183.6 to 184.5 °C |
| CC(C)Cn1nc(-c2ccc(C(F)(F)F)cc2)cc(CN(C)C)c1=O.Cl | 242.2 to 242.3 °C |
| Cc1cc(-c2cc(CN)c(=O)n(Cc3ccccc3Cl)n2)ccc1F.Cl | 201.9 to 206.4 °C |
| Cc1cc(-c2cc(CN)c(=O)n(Cc3ccccc3Cl)n2)ccc1F [Example 237, 4-aminomethyl-2-(2-chlorobenzyl)-6-(4-fluoro-3-methylphenyl)-2H-pyridazin-3-one] | 97.6 to 102.2 °C |
| C#CCNCc1cc(-c2ccc(SC)cc2)nn(CC(C)C)c1=O.Cl [Example 163, 2-isobutyl-6-[4-(methylthio)phenyl]-4-propargylaminomethyl-2H-pyridazin-3-one hydrochloride] | 197.5 to 198.4 °C |
| COc1ccc(-c2cc(CN3CCN(C)CC3)c(=O)n(CC=Cc3ccc(Cl)cc3)n2)cc1F [Example 209, 2-(4-chlorocinnamyl)-6-(3-fluoro-4-methoxyphenyl)-4-(4-methyl-1-piperazinyl)methyl-2H-pyridazin-3-one] | 123.9 to 125.5 °C |
| Cc1ccc(-c2cc(CN3CCN(C)CC3)c(=O)n(CC(C)C)n2)cc1F.Cl.Cl | 248.5 to 252 °C (dec.) |
| Cc1cc(-c2cc(CN3CCN(C)CC3)c(=O)n(Cc3ccc(Cl)cc3)n2)ccc1F [Example 222, 2-(4-chlorobenzyl)-6-(4-fluoro-3-methylphenyl)-4-(4-methyl-1-piperazinyl)methyl-2H-pyridazin-3-one] | 133.3 to 133.8 °C |
| COc1ccc(-c2cc(CN3CCN(C)CC3)c(=O)n(Cc3ccc(F)c(F)c3)n2)cc1F [Example 207, 2-(3,4-difluorobenzyl)-6-(3-fluoro-4-methoxyphenyl)-4-(4-methyl-1-piperazinyl)methyl-2H-pyridazin-3-one] | 135.4 to 136 °C |
| CSc1ccc(-c2cc(CN(C)C)c(=O)n(CC(C)C)n2)cc1.Cl [Example 161, 4-dimethylaminomethyl-2-isobutyl-6-[4-(methylthio)phenyl]-2H-pyridazin-3-one hydrochloride] | 216.8 to 218.4 °C |
| COc1ccc(-c2cc(CN(C)C)c(=O)n(CC(C)C)n2)cc1Cl.Cl | 213.6 to 214.3 °C |
| CC(C)Cn1nc(-c2ccccc2)cc(CN2CCN(C)CC2)c1=O.Cl.Cl | 243.8 to 244.3 °C |
| Cc1cc(-c2cc(CCCN)c(=O)n(Cc3ccccc3Cl)n2)ccc1F [Example 227, 4-(3-aminopropyl)-2-(2-chlorobenzyl)-6-(4-fluoro-3-methylphenyl)-2H-pyridazin-3-one] | 80 to 85 °C |
| COc1ccc(-c2cc(CN)c(=O)n(Cc3ccc(F)cc3)n2)cc1F [Example 194, 4-aminomethyl-2-(4-fluorobenzyl)-6-(3-fluoro-4-methoxyphenyl)-2H-pyridazin-3-one] | 145 to 149 °C |
